The source made the active and inactive calls. The calls are words filed in the database; no cut-off is given here.

What all share (assay type): functional, cell-based
For test [1], the target named is T1, 5-hydroxytryptamine receptor 2C (Homo sapiens) (UniProt P28335).
T1 sequence (whole entry): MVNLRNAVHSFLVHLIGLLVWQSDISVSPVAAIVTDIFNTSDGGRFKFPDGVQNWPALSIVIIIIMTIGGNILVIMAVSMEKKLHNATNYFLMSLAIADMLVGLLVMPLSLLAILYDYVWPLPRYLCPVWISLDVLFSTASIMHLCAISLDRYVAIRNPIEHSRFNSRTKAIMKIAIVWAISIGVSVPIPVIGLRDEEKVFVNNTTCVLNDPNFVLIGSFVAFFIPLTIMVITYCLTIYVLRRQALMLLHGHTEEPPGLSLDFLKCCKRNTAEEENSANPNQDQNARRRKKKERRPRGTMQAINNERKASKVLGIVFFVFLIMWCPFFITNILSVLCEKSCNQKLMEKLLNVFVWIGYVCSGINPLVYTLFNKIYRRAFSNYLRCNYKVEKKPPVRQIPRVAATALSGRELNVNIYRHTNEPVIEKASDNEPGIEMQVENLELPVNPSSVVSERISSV
Kind of test: Positive allosteric modulation of human 5-HT2C receptor stably expressed in CHO cells assessed as modulation of 5-HT induced intracellular Ca2+ release by measuring maximal efficacy at 1 uM preincubated for 15 mins followed by 5-HT addition and measured by FLIPR analysis relative to control. The settings on record: filed as positive allosteric modulator.

The target of test [2] is 5-hydroxytryptamine receptor 2A (Homo sapiens) (UniProt P28223). The test is described as follows: Positive allosteric modulation of human 5-HT2A receptor stably expressed in CHO cells assessed as modulation of 5-HT induced intracellular Ca2+ release by measuring maximal efficacy at 1 uM preincubated for 15 mins followed by 5-HT addition and measured by FLIPR analysis relative to control. The settings on record: filed as positive allosteric modulator.

Test [3] has as its target 5-hydroxytryptamine receptor 2B (Homo sapiens) (UniProt P41595). The test is described as follows: Modulation of 5-HT2B receptor (unknown origin) assessed as modulation of 5-HT induced intracellular Ca2+ release by measuring maximal efficacy at 1 uM preincubated for 15 mins followed by 5-HT addition and measured by FLIPR analysis relative to control. To be noted: filed as modulator.

Test [4] has as its system Cortical neurone. Kind of test: Induction of neurite outgrowth in Wistar rat Cortical neurons assessed as increase in neurite branching at <=10 pM incubated for 72 hrs by automated imaging based analysis.
The test system of test [5] is Cortical neurone. Kind of test: Induction of neurite outgrowth in Wistar rat Cortical neurons assessed as increase in neurite number at <=10 pM incubated for 72 hrs by automated imaging based analysis.
The test system of test [6] is Cortical neurone. The test is described as follows: Induction of neurite outgrowth in Wistar rat Cortical neurons assessed as increase in neurite length at <=10 pM incubated for 72 hrs by automated imaging based analysis.

Sequence of 5-hydroxytryptamine receptor 2B (Homo sapiens) (P41595 whole entry): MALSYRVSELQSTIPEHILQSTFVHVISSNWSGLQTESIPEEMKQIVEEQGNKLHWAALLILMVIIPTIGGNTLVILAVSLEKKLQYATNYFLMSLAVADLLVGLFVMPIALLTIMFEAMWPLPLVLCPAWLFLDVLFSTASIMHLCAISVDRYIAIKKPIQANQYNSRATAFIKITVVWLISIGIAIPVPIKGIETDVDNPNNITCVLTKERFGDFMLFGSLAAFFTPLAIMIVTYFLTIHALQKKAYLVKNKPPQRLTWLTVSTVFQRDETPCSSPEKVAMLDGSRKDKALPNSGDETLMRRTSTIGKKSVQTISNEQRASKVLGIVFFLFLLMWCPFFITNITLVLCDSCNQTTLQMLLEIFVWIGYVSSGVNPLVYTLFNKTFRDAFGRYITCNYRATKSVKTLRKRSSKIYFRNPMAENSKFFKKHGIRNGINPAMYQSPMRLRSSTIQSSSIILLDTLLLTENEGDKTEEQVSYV
Sequence of 5-hydroxytryptamine receptor 2A (Homo sapiens) (P28223 whole entry): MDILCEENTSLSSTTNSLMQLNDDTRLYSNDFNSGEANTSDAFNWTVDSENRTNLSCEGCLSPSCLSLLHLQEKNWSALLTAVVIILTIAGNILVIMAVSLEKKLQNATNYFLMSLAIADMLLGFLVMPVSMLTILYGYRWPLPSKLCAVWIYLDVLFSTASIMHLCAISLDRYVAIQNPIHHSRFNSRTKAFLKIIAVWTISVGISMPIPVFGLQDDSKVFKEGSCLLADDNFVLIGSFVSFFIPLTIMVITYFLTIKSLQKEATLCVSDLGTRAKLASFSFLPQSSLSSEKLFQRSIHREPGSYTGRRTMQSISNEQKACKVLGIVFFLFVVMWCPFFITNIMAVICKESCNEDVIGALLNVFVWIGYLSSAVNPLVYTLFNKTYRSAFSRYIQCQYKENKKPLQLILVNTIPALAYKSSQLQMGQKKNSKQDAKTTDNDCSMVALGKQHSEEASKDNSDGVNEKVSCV

In general, Emax refers to the size of the effect at its maximum, as opposed to the concentration needed. `O=C(NC[C@H](O)CO)c1cc(-c2ccccc2)ccn1`: the Emax in test [1] was found to be 120%; in test [2] it was 106%; in test [3], 115%.

As to `CC(Cc1cnc2cc(F)ccn12)N(C)C` (stereo not drawn), the outcome with Cortical neurone [4] was Active. The result in the test on Cortical neurone [5] and in the test with Cortical neurone [6] was inactive.

For the compound `COc1ccn2c(CC(C)N(C)C)ncc2c1` (stereo not drawn), the result in the test on Cortical neurone [4], in the test with Cortical neurone [5] and with Cortical neurone [6] was Active.

Regarding `COc1ccc2c3c([nH]c2c1)C[C@@H]1CCCN1CC3`, the outcome in the test with Cortical neurone [4], in the test on Cortical neurone [5] and in the test with Cortical neurone [6] was Active.

As for `COc1cccc2[nH]c3c(c12)C[C@H]1CCCN1CC3`, the result with Cortical neurone [4], in the test with Cortical neurone [5] and with Cortical neurone [6] was Active.

For `COc1ccc2c3c([nH]c2c1)CCN1CCC[C@H]1C3`, the result in the test with Cortical neurone [4], with Cortical neurone [5] and with Cortical neurone [6] was Active.

Consider `O=C(CCCc1ccccc1)NC[C@H](O)CO`, for which the Emax in test [1] worked out at 124%; in test [2], 97.8%; in test [3], 106%.

Take `COc1ccc2c3c([nH]c2c1)CCN1CCC[C@@H]1C3`: the result in the test with Cortical neurone [4], with Cortical neurone [5] and in the test with Cortical neurone [6] was Active.

On to `O=C(NC[C@H](O)CO)[C@@H]1C[C@H](c2ccccc2)CCN1`, for which, in test [3], the Emax worked out at 105%.

Turning to `COc1ccc2c3c([nH]c2c1)C[C@H]1CCCN1CC3`, the result in the test on Cortical neurone [4], in the test on Cortical neurone [5] and with Cortical neurone [6] was Active.

For the origin of these results see ChEMBL document CHEMBL5357065, “Neuropharmacological Advances: Harnessing 5-HT2A Receptor Modulators and Psychoplastogens” (ACS Med Chem Lett, 2024).
